Structures are written as SMILES.

The target in this assay is T1, Polε (WT holoenzyme) (Saccharomyces cerevisiae, UniProt P21951).
T1 construct: gene POL2; four-subunit holoenzyme, GST tag on Pol2 cut with PreScission protease, gel filtration, expressed in yeast YRP654; with DNA polymerase epsilon subunit B; DNA polymerase epsilon subunit C; DNA polymerase epsilon subunit D
As to the kind of experiment: gel-based primer extension, […]-labeled primer. It is filed as biochemical. Particulars: 50 μM dCTP running start opposite a run of 5 template G; 5 mM MgCl2, pH 7.5, 30 °C.

T1 sequence (P21951 whole entry): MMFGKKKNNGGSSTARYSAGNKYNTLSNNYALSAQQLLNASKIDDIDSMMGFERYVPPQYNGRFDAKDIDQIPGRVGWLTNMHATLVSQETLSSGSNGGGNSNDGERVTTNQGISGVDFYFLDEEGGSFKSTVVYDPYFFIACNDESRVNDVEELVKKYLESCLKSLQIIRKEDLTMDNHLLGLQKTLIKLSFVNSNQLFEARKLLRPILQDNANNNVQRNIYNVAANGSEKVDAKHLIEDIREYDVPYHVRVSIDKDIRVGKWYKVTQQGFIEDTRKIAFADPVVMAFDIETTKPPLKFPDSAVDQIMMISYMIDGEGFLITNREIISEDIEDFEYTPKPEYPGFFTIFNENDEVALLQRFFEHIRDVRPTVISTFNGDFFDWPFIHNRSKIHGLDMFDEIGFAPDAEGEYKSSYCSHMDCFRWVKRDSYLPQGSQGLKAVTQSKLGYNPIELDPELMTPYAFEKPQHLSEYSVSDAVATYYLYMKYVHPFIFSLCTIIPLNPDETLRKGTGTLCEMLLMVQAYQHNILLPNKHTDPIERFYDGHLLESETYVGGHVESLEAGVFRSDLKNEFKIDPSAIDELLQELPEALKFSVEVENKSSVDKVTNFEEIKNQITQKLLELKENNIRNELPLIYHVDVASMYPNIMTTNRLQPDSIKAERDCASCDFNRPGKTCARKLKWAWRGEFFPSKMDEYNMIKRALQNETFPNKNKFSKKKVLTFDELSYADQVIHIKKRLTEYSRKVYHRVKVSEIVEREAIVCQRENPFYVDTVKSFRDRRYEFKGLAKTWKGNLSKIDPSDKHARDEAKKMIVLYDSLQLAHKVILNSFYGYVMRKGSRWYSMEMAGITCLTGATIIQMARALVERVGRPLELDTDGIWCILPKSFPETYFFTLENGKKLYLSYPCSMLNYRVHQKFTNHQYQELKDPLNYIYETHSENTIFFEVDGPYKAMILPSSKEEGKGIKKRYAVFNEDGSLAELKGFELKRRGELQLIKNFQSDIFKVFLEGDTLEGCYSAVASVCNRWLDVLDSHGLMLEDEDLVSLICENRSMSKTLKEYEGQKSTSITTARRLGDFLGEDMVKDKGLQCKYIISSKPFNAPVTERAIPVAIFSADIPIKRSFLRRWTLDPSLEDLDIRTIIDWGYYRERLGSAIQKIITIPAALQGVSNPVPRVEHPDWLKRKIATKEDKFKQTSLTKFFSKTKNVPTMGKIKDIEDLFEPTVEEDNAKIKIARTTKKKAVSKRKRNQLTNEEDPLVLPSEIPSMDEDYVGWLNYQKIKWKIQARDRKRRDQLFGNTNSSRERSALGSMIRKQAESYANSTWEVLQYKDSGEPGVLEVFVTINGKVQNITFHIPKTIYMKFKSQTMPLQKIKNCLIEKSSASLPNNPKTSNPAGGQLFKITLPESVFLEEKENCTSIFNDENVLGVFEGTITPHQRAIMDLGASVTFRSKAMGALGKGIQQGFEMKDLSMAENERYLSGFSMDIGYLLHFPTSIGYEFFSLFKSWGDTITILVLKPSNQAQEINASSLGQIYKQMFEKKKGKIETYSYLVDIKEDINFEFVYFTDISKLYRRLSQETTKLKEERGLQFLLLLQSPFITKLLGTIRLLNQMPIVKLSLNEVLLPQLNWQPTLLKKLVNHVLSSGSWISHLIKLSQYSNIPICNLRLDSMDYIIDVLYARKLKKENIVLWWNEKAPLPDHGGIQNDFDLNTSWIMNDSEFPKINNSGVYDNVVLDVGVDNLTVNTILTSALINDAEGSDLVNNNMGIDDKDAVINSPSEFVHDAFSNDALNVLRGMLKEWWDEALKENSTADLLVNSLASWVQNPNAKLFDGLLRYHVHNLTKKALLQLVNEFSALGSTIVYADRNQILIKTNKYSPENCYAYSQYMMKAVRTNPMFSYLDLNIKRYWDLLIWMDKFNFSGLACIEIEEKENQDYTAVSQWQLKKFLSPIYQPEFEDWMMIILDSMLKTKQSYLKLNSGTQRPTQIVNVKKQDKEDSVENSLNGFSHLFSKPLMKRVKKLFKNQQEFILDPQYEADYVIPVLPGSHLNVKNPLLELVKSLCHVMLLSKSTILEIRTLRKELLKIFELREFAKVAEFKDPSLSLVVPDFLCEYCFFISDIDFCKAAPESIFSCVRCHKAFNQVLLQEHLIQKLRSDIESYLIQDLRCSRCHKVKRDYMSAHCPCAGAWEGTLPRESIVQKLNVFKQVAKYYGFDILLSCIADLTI
T1 sequence (P24482 whole entry partner): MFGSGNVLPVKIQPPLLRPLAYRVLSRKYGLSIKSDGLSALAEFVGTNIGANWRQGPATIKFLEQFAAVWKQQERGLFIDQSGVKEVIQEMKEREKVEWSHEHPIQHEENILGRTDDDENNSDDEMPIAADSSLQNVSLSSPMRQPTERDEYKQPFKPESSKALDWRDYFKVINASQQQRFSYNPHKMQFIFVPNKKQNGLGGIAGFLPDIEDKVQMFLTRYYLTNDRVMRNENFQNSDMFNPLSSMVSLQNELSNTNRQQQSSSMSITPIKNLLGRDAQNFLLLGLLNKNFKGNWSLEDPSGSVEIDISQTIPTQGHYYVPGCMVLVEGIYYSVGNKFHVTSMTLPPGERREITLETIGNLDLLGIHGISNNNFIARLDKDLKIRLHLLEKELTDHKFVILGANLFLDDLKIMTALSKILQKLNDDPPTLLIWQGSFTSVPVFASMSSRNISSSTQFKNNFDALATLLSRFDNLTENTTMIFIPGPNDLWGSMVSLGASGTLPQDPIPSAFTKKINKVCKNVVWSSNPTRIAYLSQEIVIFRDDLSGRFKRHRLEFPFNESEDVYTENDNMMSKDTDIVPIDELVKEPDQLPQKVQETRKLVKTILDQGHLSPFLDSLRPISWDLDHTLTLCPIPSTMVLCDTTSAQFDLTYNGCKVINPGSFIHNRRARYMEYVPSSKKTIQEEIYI
T1 sequence (P27344 whole entry partner): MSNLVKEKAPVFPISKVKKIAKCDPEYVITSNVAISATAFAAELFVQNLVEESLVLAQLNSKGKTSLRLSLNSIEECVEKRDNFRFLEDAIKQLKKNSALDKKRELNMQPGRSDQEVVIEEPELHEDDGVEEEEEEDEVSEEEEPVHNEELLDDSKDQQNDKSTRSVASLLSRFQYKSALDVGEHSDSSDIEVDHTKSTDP
T1 sequence (Q04603 whole entry partner): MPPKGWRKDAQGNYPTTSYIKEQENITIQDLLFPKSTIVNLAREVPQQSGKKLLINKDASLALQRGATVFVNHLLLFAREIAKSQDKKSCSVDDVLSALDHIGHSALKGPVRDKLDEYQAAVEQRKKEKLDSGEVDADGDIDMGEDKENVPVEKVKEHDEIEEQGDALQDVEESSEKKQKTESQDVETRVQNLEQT

Take `Nc1ccn([C@H]2C[C@H](O)[C@@H](COP(=O)(O)OP(=O)(O)OP(=O)(O)O)O2)c(=O)n1` [dCTP]: the “gel-based primer extension, 32P-labeled primer” value is “dCTP was added to initiate DNA synthesis opposite the template G residues”.

(Values after article PMC9791402, “Yeast 9-1-1 complex acts as a sliding clamp for DNA synthesis by DNA polymerase ε” (The Journal of Biological Chemistry, 2022).)
